In patent publication US8440424B2, “Identification of antibiotic resistance using labelled antibiotics” (miacom Diagnostics GmbH, priority 2008, dated 2013):

Experiments:
[1] = test system: Vancomycin resistant Staph (VRS); test: Binding of fluorescent labelled antibiotic, resistant vs non-resistant form: VRS; design: species or system Staphylococci (CNS); conditions: increased binding of Vancomycin; VRS relative to non-resistant form; fluorescent label
Text: (§1) Another preferred application is the detection of the binding of Vancomycin to surface proteins of Staphylococcus aureus which are anchored to the cell wall peptidoglycan. Vancomycin resistant Staphylococci bind the antibiotic to such an extent that it renders Vancomycin ineffective. Labelled Vancomycin therefore will preferably bind to resistant organisms.
(§2) An in-situ hybridisation protocol may be applied as laid down in patent application EP 06 021 267.7, which is incorporated herein by reference. The incubation with a labelled antibiotic may be performed at temperatures below the Tm of the hybridised probe. In a preferred embodiment the temperature is between about 25 and about 65° C., in a more preferred embodiment the temperature is between about 35° C. and about 59° C. In an even more preferred embodiment, the temperature is at about 52° C. The incubation time is preferably between about 1 and about 30 minutes. […]
(§3) An antibiotic resistance, such as a resistance against penicillin, may be detected in a protocol comprising the steps:
(§4) Table 4 indicates the alteration of the amount of detectable labelled antibiotics in clinically relevant micro-organisms in its resistant form relative to its non-resistant form. The amount is expressed in % change of fluorescence (decrease and increase, respectively) of an antibiotic which carries a fluorescent label.

[2] = test system: Vancomycin resistant SA (VRSA); test: Binding of fluorescent labelled antibiotic, resistant vs non-resistant form: VRSA; design: species or system Staphylococcus aureus; conditions: binding of labelled Vancomycin relative to non-resistant form
Text: as §1, §2, §3, §4

[3] = test system: Vancomycin intermediary SA (VISA); test: Binding of fluorescent labelled antibiotic, resistant vs non-resistant form: VISA; design: species or system Staphylococcus aureus; conditions: increased binding of Vancomycin; VISA relative to non-resistant form; fluorescent label
Experimental: as §2, with “minutes. In a more preferred embodiment the incubation is made for about 15 minutes. After the incubation the slide may be submerged in 50% ethanol followed by a bath in pure ethanol. Both steps may be run for between about 1 and about 10 minutes. The preferred length of incubation is between about 2 and about 6 minutes. It is more preferred to incubate about 4 minutes.” for “minutes.”
as §3, §4

[4] = test system: Vancomycin resistant Enterococci (VRE); conditions: stated as resistance mechanism; cited from earlier work
[5] = test system: Vancomycin resistant Enterococci (VRE); test: Binding of fluorescent labelled antibiotic, resistant vs non-resistant form: VRE; conditions: reduction of vancomycin binding; VRE relative to non-resistant form; fluorescent label
Experimental: as §2, with “minutes. In a more preferred embodiment the incubation is made for about 15 minutes. After the incubation the slide may be submerged in 50% ethanol followed by a bath in pure ethanol. Both steps may be run for between about 1 and about 10 minutes. The preferred length of incubation is between about 2 and about 6 minutes. It is more preferred to incubate about 4 minutes.” for “minutes.”
as §3, §4

[6] = test system: Extended Spectrum β-Lactamase (ESBL) Enterobacteriaceae; test: Binding of fluorescent labelled clavulanic acid: ESBL Enterobacteriaceae; conditions: increase, ESBL Enterobacteriaceae relative to non-resistant form
Experimental: as §2, with “minutes. In a more preferred embodiment the incubation is made for about 15 minutes. After the incubation the slide may be submerged in 50% ethanol followed by a bath in pure ethanol. Both steps may be run for between about 1 and about 10 minutes. The preferred length of incubation is between about 2 and about 6 minutes. It is more preferred to incubate about 4 minutes.” for “minutes.”
as §3, §4

[7] = test system: Extended Spectrum β-Lactamase (ESBL) Pseudomonas spp.; test: Binding of fluorescent labelled clavulanic acid: ESBL Pseudomonas spp.; conditions: increase, ESBL Pseudomonas spp. relative to non-resistant form
Experimental: as §2, with “minutes. In a more preferred embodiment the incubation is made for about 15 minutes. After the incubation the slide may be submerged in 50% ethanol followed by a bath in pure ethanol. Both steps may be run for between about 1 and about 10 minutes. The preferred length of incubation is between about 2 and about 6 minutes. It is more preferred to incubate about 4 minutes.” for “minutes.”
as §3, §4

[8] = test system: Extended Spectrum β-Lactamase (ESBL) Stenotrophomonas maltophilia; test: Binding of fluorescent labelled clavulanic acid: ESBL Stenotrophomonas maltophilia; conditions: increase, ESBL Stenotrophomonas maltophilia relative to non-resistant form
Experimental: as §2, with “minutes. In a more preferred embodiment the incubation is made for about 15 minutes. After the incubation the slide may be submerged in 50% ethanol followed by a bath in pure ethanol. Both steps may be run for between about 1 and about 10 minutes. The preferred length of incubation is between about 2 and about 6 minutes. It is more preferred to incubate about 4 minutes.” for “minutes.”
as §3, §4

[9] = test system: Extended Spectrum β-Lactamase (ESBL) BCC; test: Binding of fluorescent labelled clavulanic acid: ESBL BCC; conditions: increase, ESBL BCC relative to non-resistant form
Experimental: as §2, with “minutes. In a more preferred embodiment the incubation is made for about 15 minutes. After the incubation the slide may be submerged in 50% ethanol followed by a bath in pure ethanol. Both steps may be run for between about 1 and about 10 minutes. The preferred length of incubation is between about 2 and about 6 minutes. It is more preferred to incubate about 4 minutes.” for “minutes.”
as §3, §4

[10] = test system: Extended Spectrum β-Lactamase (ESBL) Acinetobacter; test: Binding of fluorescent labelled clavulanic acid: ESBL Acinetobacter; conditions: increase, ESBL Acinetobacter relative to non-resistant form
Experimental: as §2, with “minutes. In a more preferred embodiment the incubation is made for about 15 minutes. After the incubation the slide may be submerged in 50% ethanol followed by a bath in pure ethanol. Both steps may be run for between about 1 and about 10 minutes. The preferred length of incubation is between about 2 and about 6 minutes. It is more preferred to incubate about 4 minutes.” for “minutes.”
as §3, §4

[11] = test system: 23S rRNA; conditions: 23S rRNA position 2661 "G to C"; E. coli; when expressed with Smr, hyperaccurate S12 mutation; cited from earlier work
[12] = test system: High level Aminoglycoside Resistance in Enterococci (HLAR); test: Binding of fluorescent labelled antibiotic, resistant vs non-resistant form: HLAR; conditions: reduction in Streptomycin binding; HLAR Enterococci relative to non-resistant form; fluorescent label
Experimental: as §2, with “minutes. In a more preferred embodiment the incubation is made for about 15 minutes. After the incubation the slide may be submerged in 50% ethanol followed by a bath in pure ethanol. Both steps may be run for between about 1 and about 10 minutes. The preferred length of incubation is between about 2 and about 6 minutes. It is more preferred to incubate about 4 minutes.” for “minutes.”
as §3, §4

[13] = test system: Methicillin Resistant Staphylococcus aureus (MRSA); test: Binding of fluorescent labelled antibiotic, resistant vs non-resistant form: MRSA; conditions: reduction of Penicillin binding; MRSA relative to non-resistant form; antibiotic carries a fluorescent label
Experimental: as §2, with “minutes. In a more preferred embodiment the incubation is made for about 15 minutes. After the incubation the slide may be submerged in 50% ethanol followed by a bath in pure ethanol. Both steps may be run for between about 1 and about 10 minutes. The preferred length of incubation is between about 2 and about 6 minutes. It is more preferred to incubate about 4 minutes.” for “minutes.”
as §3, §4

[14] = test system: Community acquired MRSA (CA-MRSA); type: binding, Staphylococcus aureus; conditions: reduction of penicillin binding; CA-MRSA relative to non-resistant form; antibiotic carries a fluorescent label
Experimental: The incubation with a labelled antibiotic may be performed at temperatures below the Tm of the hybridised probe. In a preferred embodiment the temperature is between about 25 and about 65° C., in a more preferred embodiment the temperature is between about 35° C. and about 59° C. In an even more preferred embodiment, the temperature is at about 52° C. The incubation time is preferably between about 1 and about 30 minutes. In a more preferred embodiment the incubation is made for about 15 minutes. After the incubation the slide may be submerged in 50% ethanol followed by a bath in pure ethanol. Both steps may be run for between about 1 and about 10 minutes. The preferred length of incubation is between about 2 and about 6 minutes. It is more preferred to incubate about 4 minutes. The slides may then be air-dried (e.g. on a hot plate) and the cells may be embedded in a balanced salt mounting medium.

[15] = test system: Border.line oxacillin resistant SA (BORSA); test: Binding of fluorescent labelled antibiotic, resistant vs non-resistant form: BORSA; design: species or system Staphylococcus aureus; conditions: reduction of penicillin binding; BORSA relative to non-resistant form; fluorescent label
Experimental: as §2, with “minutes. In a more preferred embodiment the incubation is made for about 15 minutes. After the incubation the slide may be submerged in 50% ethanol followed by a bath in pure ethanol. Both steps may be run for between about 1 and about 10 minutes. The preferred length of incubation is between about 2 and about 6 minutes. It is more preferred to incubate about 4 minutes.” for “minutes.”
as §3, §4

[16] = test system: Oxacillin resistant SA (ORSA); test: Binding of fluorescent labelled antibiotic, resistant vs non-resistant form: ORSA; design: species or system Staphylococcus aureus; conditions: reduction of penicillin binding; ORSA relative to non-resistant form; fluorescent label
Experimental: as §2, with “minutes. In a more preferred embodiment the incubation is made for about 15 minutes. After the incubation the slide may be submerged in 50% ethanol followed by a bath in pure ethanol. Both steps may be run for between about 1 and about 10 minutes. The preferred length of incubation is between about 2 and about 6 minutes. It is more preferred to incubate about 4 minutes.” for “minutes.”
as §3, §4

Molecule: CN[C@H](CC(C)C)C(=O)N[C@H]1C(=O)N[C@@H](CC(N)=O)C(=O)N[C@H]2C(=O)N[C@H]3C(=O)N[C@H](C(=O)N[C@H](C(=O)O)c4cc(O)cc(O)c4-c4cc3ccc4O)[C@H](O)c3ccc(c(Cl)c3)Oc3cc2cc(c3O[C@@H]2O[C@H](CO)[C@@H](O)[C@H](O)[C@H]2O[C@H]2C[C@](C)(N)[C@H](O)[C@H](C)O2)Oc2ccc(cc2Cl)[C@H]1O [Vancomycin]
- % Change in Fluorescenc [1]: >50%
- Effect of resistance on fluorescence [2]: Increased
- % Change in Fluorescenc [3]: 20-50%
- Reduced affinity to Van [4]: Reduced affinity to Van by 3 orders of magnitude
- % Change in Fluorescenc [5]: >80%

Molecule: O=C(O)[C@H]1/C(=C/CO)O[C@@H]2CC(=O)N21 [clavulanic acid]
- % Change in Fluorescenc [6]: >80%
- % Change in Fluorescenc [7]: >80%
- % Change in Fluorescenc [8]: >80%
- % Change in Fluorescenc [9]: >80%
- % Change in Fluorescenc [10]: >80%

Molecule: [H]/N=C(/N)N[C@H]1[C@H](O)[C@@H](O)[C@H](O[C@@H]2O[C@@H](C)[C@](O)(C=O)[C@H]2O[C@@H]2O[C@@H](CO)[C@H](O)[C@@H](O)[C@@H]2NC)[C@@H](N/C(N)=N\[H])[C@@H]1O [Streptomycin, reference compound]
- Phenotype [11]: streptomycin dependent
- % Change in Fluorescenc [12]: >80%

Molecule: Penicillin
- % Change in Fluorescenc [13]: > to ≈80%
- % Change in Fluorescenc [14]: > to ≈80%
- % Change in Fluorescenc [15]: > to ≈80%
- % Change in Fluorescenc [16]: > to ≈80%
